Several values for one entry are separate records, joined by “and”; a condition that tells them apart may be missing. Identical values can stand only once.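 All cell lines were grown in 96-well plates and treated with compound for 48 hours. Here, GI50 denotes the concentration required for 50% inhibition of growth. At the TGI there is no net growth.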
Key:
Test in all cases: NCI tumour cell line growth inhibition, 48 h
BT-549 breast = system: BT-549 breast
HCT-116 colon = system: HCT-116 colon
HL-60(TB) leukemia = system: HL-60(TB) leukemia
KM12 colon = system: KM12 colon
OVCAR-4 ovarian = system: OVCAR-4 ovarian
OVCAR-8 ovarian = system: OVCAR-8 ovarian
SF-268 CNS = system: SF-268 CNS
SK-MEL-28 melanoma = system: SK-MEL-28 melanoma
SR leukemia = system: SR leukemia
TK-10 renal = system: TK-10 renal

SMILES	TGI (BT-549 breast)	GI50 (HCT-116 colon) [µM]	TGI (HCT-116 colon)	GI50 (HL-60(TB) leukemia) [µM]	TGI (HL-60(TB) leukemia)	TGI (KM12 colon) [µM]	GI50 (OVCAR-4 ovarian) [µM]	TGI (OVCAR-8 ovarian) [µM]	GI50 (SF-268 CNS) [µM]	TGI (SF-268 CNS)	GI50 (SK-MEL-28 melanoma) [µM]	TGI (SK-MEL-28 melanoma)	GI50 (SR leukemia) [µM]	TGI (SR leukemia) [µM]	TGI (OVCAR-4 ovarian) [µM]	TGI (TK-10 renal) [µM]	GI50 (BT-549 breast) [µM]	GI50 (KM12 colon) [µM]	GI50 (OVCAR-8 ovarian) [µM]	GI50 (TK-10 renal) [µM]
Cc1cc(-c2c(F)cc3c4nn([C@H]5CC[C@@H](N(C)C)CC5)c(=O)c-4cn(C4CC4)c3c2F)cc(C)n1	10.8 µM	0.0391	0.356 µM and 1.27 µM	0.00306	0.0322 µM and 0.235 µM	1.11	0.316	0.808	0.0285	0.151 µM and 0.89 µM	0.0689	0.368 µM and 3.34 µM	0.002	0.0268	–	–	–	–	–	–
CCOC(=O)c1cc(-c2ccc(-c3cc(C(=O)OCC)c(C#N)c(N)c3C#N)cc2)c(C#N)c(N)c1C#N	–	–	> 100 µM	–	> 100 µM	> 100	–	> 100	–	> 100 µM	–	> 100 µM	–	> 100	> 100	> 100	–	–	–	–
COc1ccc(C2=Nc3ccccc3SC(C)C2)cc1OC (stereo not given)	–	–	32.1 µM	–	59.6 µM	36.3	–	43.8	–	43.5 µM	–	56.6 µM	–	57.4	57.4	79.4	–	–	–	–
Cc1c(C(=O)O)n(C)c(=O)n(C)c1=O	–	–	> 100 µM	–	> 100 µM	> 100	–	> 100	–	> 100 µM	–	> 100 µM	–	–	> 100	> 100	–	–	–	–
COc1cc(C2C3=C(COC3=O)N(CCO)c3cc4c(cc32)OCCO4)cc(OC)c1OC (stereo not given)	> 11.8 µM	0.178	–	0.155	1.28 µM	0.838	0.416	> 50	0.374	> 50 µM	> 50	> 50 µM	0.166	–	> 50	–	0.32	0.187	0.24	–
CCOC(=O)C(Cc1ccc(N(CCCl)CCCl)cc1)NC(=O)C(Cc1ccccc1)NC=O (stereo not given)	0.756 µM	–	0.535 µM	–	0.279 µM	0.638	–	0.527	–	0.299 µM	–	–	–	0.824	0.123	0.275	–	–	–	–
C/C(CN1C(=O)c2ccccc2C1=O)=N\NS(=O)(=O)c1cccc(C(=O)O)c1	–	–	> 100 µM	–	> 100 µM	> 100	–	> 100	–	> 100 µM	–	> 100 µM	–	> 100	> 100	> 100	–	–	–	–
Cc1ccc(N=C[N-]c2ccc(C)cc2)cc1.Cc1ccc(N=C[N-]c2ccc(C)cc2)cc1.O=C([O-])C(F)(F)F.O=C([O-])C(F)(F)F.[OH3+].[OH3+].[Rh+2].[Rh+2]	–	16.7	35.4 µM	–	–	> 100	44.6	> 100	28.4	81.6 µM	14.1	39.2 µM	–	–	> 100	> 100	–	35	35.1	50.2
Cc1ccc(C)c(N2C(=O)C(=O)C(c3nc4ccccc4o3)C(=O)C2=O)c1	–	–	90.5 µM	–	61.3 µM	> 100	–	> 100	–	> 100 µM	–	> 100 µM	–	> 100	> 100	> 100	–	–	–	–
COC1CC(O)C(OC(=O)c2ccccc2)C(C)O1 (stereo not given)	–	–	> 100 µM	–	> 100 µM	> 100	–	> 100	–	> 100 µM	–	> 100 µM	–	> 100	> 100	> 100	–	–	–	–
CCC[CH2][Sn]([CH2]CCC)([S]C#N)[S]C#N	–	1.45	3.11 µM	0.389	1.45 µM	3.11	1.34	3.54	0.802	2.26 µM	0.753	2.15 µM	0.36	2.54	2.74	2.4	–	1.45	1.53	1.11
CC(=O)OC12C=C(C)C(C(C)C1)C1C(=O)N(CCN3CCCCC3)C(=O)C12 (stereo not given)	> 50 µM	> 50	> 50 µM	> 50	> 50 µM	> 50	> 50	> 50	> 50	> 50 µM	–	–	> 50	> 50	> 50	> 50	> 50	> 50	> 50	> 50
COc1ccc2oc3c(OC)c(OC)c(OC)cc3c(=O)c2c1	–	–	> 100 µM	–	–	–	–	> 100	–	> 100 µM	–	> 100 µM	–	–	> 100	> 100	–	–	–	–
COc1ccccc1NC(=O)C1=C(C)NC(C)=C(C(=O)Nc2ccccc2OC)C1/C=C/c1ccccc1	–	–	> 100 µM	–	> 100 µM	> 100	–	> 100	–	> 100 µM	–	> 100 µM	–	> 100	> 100	> 100	–	–	–	–
S=C1Cc2c(-c3ccc(Br)cc3)cc(-c3ccccc3)nc2-c2ccccc2N1	18 µM	–	5.38 µM	–	> 100 µM	> 42	–	3.02	–	6.19 µM	–	27.3 µM	–	–	1.43	3.75	–	–	–	1.79
CCOC(=O)/C(=C/c1cccc(Cl)c1)N(CC)CC	–	–	> 100 µM	–	> 100 µM	> 100	–	> 100	–	> 100 µM	–	> 100 µM	–	> 100	> 100	> 100	–	–	–	–
CSc1nc2nc3c(nc2c(=O)n1C)C(=O)c1ccccc1C3=O	0.305 µM	0.149	1.13 µM	0.209	0.514 µM	0.994	–	0.834	0.294	1.09 µM	0.188	0.452 µM	0.332	> 100	–	2.1	0.159	0.278	0.225	0.766
CC(C)c1cccc(C(C)C)c1N1C(=O)C(=O)C(c2nc3ccccc3o2)C(=O)C1=O	–	–	> 100 µM	–	> 100 µM	> 100	–	> 100	–	> 100 µM	–	> 100 µM	–	–	> 100	> 100	–	–	–	–
CCCCCC(O)C(O)CCC[C@H](O)[C@H]1CC[C@H]([C@H]2CC[C@H]([C@H](O)CCCCCCCCCCCCC3=C[C@H](C)OC3=O)O2)O1 (stereo not given in full)	2.79 µM and 25.5 µM	0.0933	38.7 µM	–	4.28 µM	29.1	–	> 100	12.4	40.8 µM	14.7	73 µM	–	–	24.1	26.2	–	9.78	7.24	6.83
CCCCC#Cc1c(I)n(C)c(=O)[nH]c1=O	4.55 µM	1.7	3.07 µM	–	–	29.5	1.76	10.1	2.68	7.64 µM	1.75	3.13 µM	0.895	2.09	3.15	16	1.94	16	3.36	4.76

SMILES	TGI (BT-549 breast)	GI50 (HCT-116 colon) [µM]	TGI (HCT-116 colon)	GI50 (HL-60(TB) leukemia) [µM]	TGI (HL-60(TB) leukemia)	TGI (KM12 colon) [µM]	GI50 (OVCAR-4 ovarian) [µM]	TGI (OVCAR-8 ovarian) [µM]	GI50 (SF-268 CNS) [µM]	TGI (SF-268 CNS)	GI50 (SK-MEL-28 melanoma) [µM]	TGI (SK-MEL-28 melanoma)	GI50 (SR leukemia) [µM]	TGI (SR leukemia) [µM]	TGI (OVCAR-4 ovarian) [µM]	TGI (TK-10 renal) [µM]	GI50 (BT-549 breast) [µM]	GI50 (KM12 colon) [µM]	GI50 (OVCAR-8 ovarian) [µM]	GI50 (TK-10 renal) [µM]
C#CC1=CC(=O)C(OC)=CC1=O	–	–	40 µM	–	13.4 µM	> 100	–	–	–	> 100 µM	–	> 100 µM	–	36.4	–	> 100	–	–	–	–
ClCc1ccccc1Cn1cnc2ncnc(Cl)c21	6.09 µM	1.5	4.11 µM	–	–	11.3	4.94	8.74	4.76	24.4 µM	4.47	18.7 µM	–	–	20.5	9.57	2.45	3.6	2.74	3.5
O=C(CN(/C=C/C(=O)C(F)(F)F)c1ccc(Cl)cc1)c1ccc(Cl)c(Cl)c1	33.3 µM	3.54	13.2 µM	–	–	10.8	8.71	28.8	4.13	16.4 µM	16.7	45 µM	2.26	6.96	28.1	20.1	16.7	2.62	10.7	7.38
[N-]=[N+]=NCCCn1c2c(c3ccc([N+](=O)[O-])cc3c1=O)C(=O)c1cc(Br)ccc1-2	> 100 µM	3.01	> 100 µM	–	–	> 100	> 100	> 100	> 100	> 100 µM	> 100	> 100 µM	–	–	> 100	> 100	> 100	> 100	> 100	> 100
COc1cc(/C=C/c2ccc(O)c(OC)c2)cc(OC)c1	–	–	> 100 µM	–	78.1 µM	96.5	–	> 100	–	> 100 µM	–	> 100 µM	–	> 100	> 100	68.3	–	–	–	–
O=C(NNc1ccc(Cl)cc1)C1CCC(CNS(=O)(=O)c2ccccc2Cl)CC1 (stereo not given)	52.6 µM	–	–	4.25	> 100 µM	99.4	–	> 100	8.31	> 100 µM	–	–	10.2	66.4	–	6.68	21.6	4.37	21.6	0.453
C1CCCCc2nc3c(nc2CCC1)c1nc2c(nc1c1nc4c(nc31)CCCCCCCC4)CCCCCCCC2	–	–	> 100 µM	–	> 100 µM	> 100	–	> 100	–	> 100 µM	–	> 100 µM	–	> 100	–	> 100	–	–	–	–
Cc1ccc2nc(NC(=O)C(=O)C(C#N)c3ccc(Cl)cc3)sc2c1 (stereo not given)	–	–	> 50 µM	–	–	> 50	–	> 50	–	> 50 µM	–	> 50 µM	–	–	> 50	> 50	–	–	–	–
CC1=C(SC#N)S(=O)(=O)N(c2ccccc2)C(C)=C1SC#N	–	–	69.8 µM	–	> 100 µM	> 100	–	> 100	–	> 100 µM	–	> 100 µM	–	65.5	> 100	> 100	–	–	–	–
NC1c2ccccc2Nc2ccccc21	–	–	13.6 µM	–	16.3 µM	17	–	17.1	–	13.9 µM	–	14.2 µM	–	7.24	–	29.8	–	–	–	–
CN1Cc2ccccc2/C=C\c2ccccc21	> 100 µM	–	> 100 µM	–	–	> 100	–	> 100	–	> 100 µM	–	> 100 µM	–	–	> 100	> 100	–	–	–	–
COCCOc1cc(C)cc(/C=C(C)/C=C/C2=C(C)CCCC2(C)C)n1	–	–	> 100 µM	–	–	> 100	–	> 100	–	> 100 µM	–	> 100 µM	–	> 100	> 100	> 100	–	–	–	–
COc1ccc2nc(C(=O)c3ccccc3)c(C)cc2c1	–	–	> 40.7 µM	–	> 100 µM	> 45.8	–	> 46.3	–	56.3 µM	–	> 62.2 µM	–	> 100	> 100	76.1	–	–	–	–
N#CC(C(=O)CCCC(=O)Nc1ccc(Cl)cc1Cl)c1ccccc1 (stereo not given)	–	–	> 100 µM	–	> 100 µM	> 100	–	> 100	–	> 100 µM	–	> 100 µM	–	> 100	> 100	> 100	–	–	–	–
COC1=CC(C2c3cc4c(cc3[C@@H](Nc3ccc(F)cc3)C3COC(=O)[C@H]23)OCO4)=CC(=O)C1=O (stereo not given in full)	–	–	30.5 µM	–	> 21.4 µM	34.5	–	> 51.4	–	36.6 µM	–	45.8 µM	–	> 23.6	> 61.2	> 63	–	–	–	–
O=C(O)CCNS(=O)(=O)c1ccc2ccccc2c1	–	–	–	–	> 100 µM	> 100	–	> 100	–	> 100 µM	–	> 100 µM	–	–	> 100	> 100	–	–	–	–
C=C1C(O)C2CC(C)(CO)C(=O)C2=C(CC(C)C)C12CC2 (stereo not given)	> 100 µM	38.7	> 100 µM	–	–	> 100	> 100	> 100	> 100	> 100 µM	> 100	> 100 µM	40.8	> 100	> 100	> 100	> 100	50.6	77.8	52.9
Cc1cccc(C(=O)O)c1C(=O)c1cccc2ccccc12	–	–	> 100 µM	–	–	> 100	–	> 100	–	> 100 µM	–	> 100 µM	–	> 100	> 100	> 100	–	–	–	–
CC1OC(=O)C(O)=C1O (stereo not given)	–	–	> 100 µM	–	–	> 100	–	> 100	–	> 100 µM	–	–	–	> 100	> 100	> 100	–	–	–	–
CCC(C)CC(C)CC(C)/C=C(\C)C1=C(C)CC(C)(O)O1 (stereo not given)	–	–	> 100 µM	–	79 µM	–	–	> 100	–	–	–	> 100 µM	–	–	–	> 100	–	–	–	–
